Reference: ChEMBL document CHEMBL1159374, “Callysponginol sulfate A, an MT1-MMP inhibitor isolated from the marine sponge Callyspongia truncata” (J Nat Prod, 2003)
Where a name gives a salt, the structure may show the parent alone. Calls of active or inactive are those of the source. No cut-off for these calls is given here.

Target: Matrix metalloproteinase-14 (Homo sapiens, UniProt P50281)
Assay: Inhibition of truncated recombinant MT1-MMP expressed in Escherichia coli JM109 after 1 hr by fluorescence assay

SMILES: CCCCCC/C=C\CCCCCCCCCCCCC#C[C@@H](O)C(=O)O
- Activity: inactive

SMILES: CCCCCC/C=C\CCCCCCCCCCCCC#C[C@@H](OS(=O)(=O)O)C(=O)O [CALLYSPONGINOL SULFATE A]
- IC50: 31.2 µM

SMILES: CC(CC[C@@H](C)[C@H]1CC[C@H]2[C@@H]3C[C@H](OS(=O)(=O)O)[C@H]4C[C@H](OS(=O)(=O)O)[C@@H](OS(=O)(=O)O)C[C@]4(C)[C@H]3CC[C@]12C)C(C)(C)C (stereo partly drawn) [HALISTANOL SULFATE]
- IC50: 25.2 µM
